“Also recorded” adds a separate entry of the source.
Key:
[1] = tested on: C3H/HeJ mice after bilateral removal of SCG (SCGx); assay: Assessment of diurnal rhythm after bilateral removal of SCG (SCGx); type: in vivo; conditions: 50 μg melatonin once intraperitoneally
[2] = tested on: nicotine-stimulated sympathetic neurons co-cultured with LPS-preactivated macrophages; assay: Co-culture of sympathetic neurons and bone marrow-derived macrophages; type: cell-based, mouse; conditions: CVF 20 U/ml for 90 min on LPS-preactivated macrophages; 1 μM nicotine; 48 h co-culture
Procedure: For the co-culture experiment, BMDM precursors were isolated and differentiated to macrophages as mentioned above. On day 6 of differentiation, primary neurons were isolated as described above. ˜5,000 neurons were seeded on separate wells of a 96-well Ibidi plate precoated with Laminin (0.1 mg/ml). At day 7 of differentiation, macrophages were either stimulated with PBS (control) or LPS (5 ng/ml) overnight. On the following day, LPS-preactivated macrophages were either incubated with PBS (control) or Cobra Venom Factor (CVF; 20 U/ml) for 90 min at 37° C. for complement inhibition. Afterwards, macrophages were chemically detached from the Petri dishes using Accutase and seeded around neurons. ˜10,000 macrophages were added per well. Co-culture medium was a mixture of neuronal and macrophage medium. Furthermore, part of the co-culture medium was supplemented with 1 μM Nicotine for artificial neuronal stimulation. 4 wells were cultivated per condition. One well per condition was transferred into the EVOS M7000 for live cell imaging (timelapse). […]
After 48 hours of co-culture (at 37° C. and 5% CO2), cells were fixated using 4% Paraformaldehyde. […] For quantification, two tilescans (2×2) per well were acquired using a 63× objective of a confocal microscope (Leica TCS SP5 II) and quantified for neuronal cell number and axonal dimensions using Imaris (Bitplane, version 9.5). […]

| Molecule | diurnal rhythmicity (activity, ratio between dark and light) [1] | neurite outgrowth (axon length, branching points) [2] | neuronal cell loss (neuronal cell number per field of view) [2] |
| --- | --- | --- | --- |
| COc1ccc2[nH]cc(CCNC(C)=O)c2c1 [melatonin] | completely restored; also recorded: rescued |  |  |
| Cobra venom factor |  | rescued | effectively prevented |
